The results in this text go back to article PMC9489722, “Identification and development of a subtype-selective allosteric AKT inhibitor suitable for clinical development” (Scientific Reports, 2022).

A word on the IC50: it is the concentration that gives 50% inhibition. As usually defined, the inhibition is the change of the read-out against control, counted positive when it falls. A word on the EC50: it is the concentration needed to bring the measured effect to its halfway point.

One experiment has as its system ∆AKT3. The experiment in a line: PH domain null AKT3 biochemical kinase assay (FP iMAP). As to the method: Biochemical analysis was performed using kinases obtained from Millipore (AKT1, ∆AKT1, ∆AKT2, ∆AKT3) and Signal Chem (AKT2 and AKT3). The specific activity of AKT 1,2 and 3 was determined to be 114 nmol/min/mg, 44 nmol/min/mg and 200 nmol/min/mg respectively as per activity assay protocol. ALM301 was profiled using the Fluorescent Polarisation (FP) iMAP Screening Express kit (Molecular Devices) using the FAM-Crosstide substrate [5FAM-[…]-OH] (Molecular Devices) against the three isoforms of AKT and their PH domain null mutants. Compounds were dissolved in DMSO prior to screening at 14 point titration series in the range (50 µM–50 pM). Fluorescence polarisation was measured using a Biotek Synergy 4 Hybrid microplate reader. Percentage inhibition of kinase activity was calculated and IC50 values derived using non-linear regression on GraphPad Prism. Competition of ALM301 with ATP was determined using AKT1 under increasing ATP concentrations up to 1000 µM.

The next experiment has as its target CYP 1A2 (Homo sapiens, UniProt P05177). Kind of experiment: CYP1A2 inhibition. Type of experiment: in vitro ADME.
A further experiment has as its target T1, AKT1 (Homo sapiens, UniProt P31749).
T1 construct: purchased Millipore
Kind of experiment: SelectScreen kinase selectivity profiling, AKT1. Type of experiment: biochemical. The note with it: read-out: % inhibition @ 10 µM, AKT1; 10 µM fixed concentration. The method, then:
Off-target kinase activity was performed using the SelectScreen kinase profiling service against either mini 50 kinase or full 450 kinase panels using the Z’lyte and Adapta kinase activity platforms (performed by Thermofisher).

Experiment [1] concerns MCF-7 cells. The experiment in a line: In vitro proliferation assay (CellTiter-Glo), MCF-7. Type of experiment: cell-based. The note with it: Homo sapiens, MCF7; MCF-7 cells (PI3KCA mutation), 72 h; read-out: anti-proliferative IC50, MCF-7. The method, then:
MCF-7, T47D, NCI-H460, HCT116, LNCaP, A431, PC3, PANC-1, A549, HT29M, SKOV-3, Du145, HMEC-1, Hs888Lu, Hela, MDA-MB-231 and SW480 cells were obtained from American Type Culture Collection (ATCC). A2780, PNT2, U251MG, HFFF2 and Fr2 cells were obtained from Public Health England European Collection of Authenticated Cell Cultures (Phe ECACC). InMyoFib and NHLF cells were acquired from Lonza. Cells were then incubated with increasing concentration of inhibitor (1 nM to 100 µM) for 72 h at 37 °C. Cell viability was determined using the CellTiter-Glo Luminescent Cell Viability Assay (Promega). IC50 values were derived as previously stated.
In general terms: ATP-based viability assays read luminescence as a measure of living cells.

The subject of experiment [2] is MCF-7 cells. Kind of experiment: In vitro Incucyte live cell imaging proliferation assay. The note with it: MCF-7, 5 µM, 7d time course. It counts as cell-based. The method, then: MCF-7 cells were obtained from American Type Culture Collection (ATCC). […] Cell confluency was measured over time using an Incucyte Zoom S3 using the basic analyser processing analysing tool. Percentage confluence values were calculated and IC50 values were derived as previously stated.

Experiment [3] relates to pAKT (Ser473) in MCF-7 cells. The experiment in a line: phospho-AKT (S473) ELISA in MCF-7 cells. Type of experiment: cell-based. The settings on record: Homo sapiens, MCF7, 24h treatment, read-out: EC50 inhibition of phosphorylation of AKT. As to the method: Cells were then washed with PBS and lysed. The subsequent supernatant was assayed using a GSK3β (pS9) (Invitrogen, Life Technologies) ELISA. Phospho-AKT levels were detected using the phospho-AKT (S473) immunoassay (R&D Systems) as per manufacturer’s protocol. Percentage inhibition of phosphorylation status was calculated by comparing phospho-AKT levels to total AKT levels with each treatment and IC50 values derived using non-linear regression on GraphPad Prism.
(In general: ELISA stands for enzyme-linked immunosorbent assay.)

T1 sequence (P31749 whole entry): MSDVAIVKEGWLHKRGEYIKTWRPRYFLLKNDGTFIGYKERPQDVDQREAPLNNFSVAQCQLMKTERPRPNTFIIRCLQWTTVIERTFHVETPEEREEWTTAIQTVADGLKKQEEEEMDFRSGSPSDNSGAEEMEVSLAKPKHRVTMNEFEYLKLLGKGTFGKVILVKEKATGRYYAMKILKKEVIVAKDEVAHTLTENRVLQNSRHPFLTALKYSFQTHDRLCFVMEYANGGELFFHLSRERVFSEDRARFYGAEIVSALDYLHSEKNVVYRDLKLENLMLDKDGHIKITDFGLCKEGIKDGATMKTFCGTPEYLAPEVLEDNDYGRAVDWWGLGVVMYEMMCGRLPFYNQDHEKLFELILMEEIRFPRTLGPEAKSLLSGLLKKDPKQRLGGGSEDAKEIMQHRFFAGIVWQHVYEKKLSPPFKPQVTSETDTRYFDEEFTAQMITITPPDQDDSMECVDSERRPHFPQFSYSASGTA
Sequence of CYP 1A2 (P05177 whole entry): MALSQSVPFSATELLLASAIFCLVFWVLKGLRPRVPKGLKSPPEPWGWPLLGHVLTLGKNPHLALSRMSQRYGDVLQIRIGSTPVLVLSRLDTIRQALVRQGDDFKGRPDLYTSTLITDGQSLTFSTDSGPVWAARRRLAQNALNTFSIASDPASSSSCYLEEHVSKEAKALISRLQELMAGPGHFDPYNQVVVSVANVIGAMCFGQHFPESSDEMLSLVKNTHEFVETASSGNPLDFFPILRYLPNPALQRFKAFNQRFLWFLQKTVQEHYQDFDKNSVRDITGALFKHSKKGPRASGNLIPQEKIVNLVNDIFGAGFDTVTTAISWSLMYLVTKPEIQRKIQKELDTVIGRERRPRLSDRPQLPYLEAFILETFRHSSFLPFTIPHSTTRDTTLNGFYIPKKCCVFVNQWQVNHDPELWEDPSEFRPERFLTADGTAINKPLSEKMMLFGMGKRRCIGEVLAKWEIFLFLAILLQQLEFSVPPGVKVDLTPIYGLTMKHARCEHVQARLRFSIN

`CCN1C(=O)COc2nc(-c3ccc([C@]4(N)C[C@@H](O)C4)cc3)c(-c3ccccc3)cc21` [ALM301, 6-(4-((1S,3S)-1-amino-3-hydroxycyclobutyl)phenyl)-1-ethyl-7-phenyl-1H-pyrido[2,3-b][1,4]oxazin-2(3H)-one]: the “inhibition of truncated AKT3 lacking PH domain” value in the experiment on ∆AKT3 is “not inhibited”. For the same compound, the figures for the IC50 on CYP 1A2 and in the experiment with MCF-7 cells [1] were over 25 µM and 2.25 µM, respectively. Besides, on AKT1, the inhibition at 10 µM amounted to 95%. Besides, the “cell proliferation by live cell imaging” value in the experiment with MCF-7 cells [2] was “completely abrogated cell proliferation”. Further, in experiment [3], the EC50 came to 0.47 µM.
